{"source": "patent US4590178A", "about": "(Ajinomoto Company, Incorporated, priority 1982, dated 1986)", "tested_on": "spontaneously hypertensive rats", "assay": "Antihypertensive activity: systolic blood pressure measured indirectly on conscious SHR after peroral dosing", "type": "in vivo, rat", "conditions": "for Systolic Blood Pressure, Pretreatment: SHR (male, 13 months, 2 per sample), before 35 mg/kg peroral single dose; for Systolic Blood Pressure, 4 hrs after administration / Δ Blood Pressure: SHR; for Systolic Blood Pressure, 4 hrs after administration: 4 hours after 35 mg/kg peroral single dose; for Δ Blood Pressure: 4 hours after 35 mg/kg peroral single dose versus pretreatment", "description": "The antihypertensive activity of part of the amino acid derivatives prepared above, was determined.\nAs subject animals 2 SHR were used which had been trained enough and been confirmed to be hypertensive spontaneously hypertensive rats (male, 13 months of age, the body weight of 400 to 440 g) per sample.\nAs an instrument for measuring the blood pressure a Programmed Electro-Sphygmomanometer PE-300 (Narco Co., U.S.A.) was used, and the blood pressure was indirectly measured on conscious rats.\nAn aqueous solution or suspension of a sample (35 mg/kg) was once force-fed into the stomach by means of a peroral probe.\nAn antihypertensive activity of part of the amino acid derivatives prepared above was determined.\nAs subject animals there were used 2 SHR which had been trained enough and been confirmed to be hypertensive spontaneously hypertensive rats (male, 13 months of age, the body weight of 400~440 g) per sample.\nAs an instrument for measuring the blood pressure there was used Programmed Electro-Sphygmomanometer PE-300 (Narco Co., U.S.A.), and the blood pressure was indirectly measured on conscious rats.\nAn antihypertensive activity of the product prepared above was determined."}
{"smiles": "C[C@H](NP(=O)(OCc1ccccc1)OCc1ccccc1)C(=O)N1CCC[C@H]1C(=O)N1C[C@H](O)C[C@H]1C(=O)O.N=C(N)NCCC[C@H](N)C(=O)O", "note": "(relative stereo) [Example 16, Dibenzylphosphoryl-L-alanyl-L-prolyl-trans-L-hydroxyproline L-arginine salt]", "values": [{"measurement": "Systolic Blood Pressure, Pretreatment", "result": 181, "unit": "mm Hg"}, {"measurement": "Systolic Blood Pressure, 4 hrs after administration", "result": 162, "unit": "mm Hg"}, {"measurement": "Δ Blood Pressure", "result": -19, "unit": "mm Hg"}]}
{"smiles": "C[C@H](NP(=O)(OCc1ccccc1)OCc1ccccc1)C(=O)N1C[C@H](O)C[C@H]1C(=O)N1CCC[C@H]1C(=O)O", "note": "(relative stereo) [Example 17, Dibenzylphosphoryl-L-alanyl-trans-L-hydroxyprolyl-L-proline]", "values": [{"measurement": "Systolic Blood Pressure, Pretreatment", "result": 182, "unit": "mm Hg"}, {"measurement": "Systolic Blood Pressure, 4 hrs after administration", "result": 163, "unit": "mm Hg"}, {"measurement": "Δ Blood Pressure", "result": -19, "unit": "mm Hg"}]}
{"smiles": "C[C@H](NP(=O)(OCc1ccccc1)OCc1ccccc1)C(=O)N1CCC[C@H]1C(=O)O.NC(N)=NCCC[C@H](N)C(=O)O", "note": "[*, Dibenzyl phosphorylL-alanyl-L-proline Larginine salt, reference compound]", "values": [{"measurement": "Systolic Blood Pressure, Pretreatment", "result": 198, "unit": "mm Hg"}, {"measurement": "Systolic Blood Pressure, 4 hrs after administration", "result": 193, "unit": "mm Hg"}, {"measurement": "Δ Blood Pressure", "result": -5, "unit": "mm Hg"}]}
{"smiles": "C[C@H](NP(=O)(OCc1ccccc1)OCc1ccccc1)C(=O)N1CCC[C@H]1C(=O)N[C@@H](Cc1ccccc1)C(=O)O.N=C(N)NCCC[C@H](N)C(=O)O", "note": "[Example 5, Dibenzylphosphoryl-L-alanyl-L-prolyl-L-phenylalanyl L-arginine salt]", "values": [{"measurement": "Systolic Blood Pressure, Pretreatment", "result": 188, "unit": "mm Hg"}, {"measurement": "Systolic Blood Pressure, 4 hrs after administration", "result": 173, "unit": "mm Hg"}, {"measurement": "Δ Blood Pressure", "result": -15, "unit": "mm Hg"}]}
{"smiles": "C[C@H](NP(=O)(OCc1ccccc1)OCc1ccccc1)C(=O)N1CCC[C@H]1C(=O)NCC(=O)O.N=C(N)NCCC[C@H](N)C(=O)O", "note": "[Example 6, Dibenzylphosphory-L-alanyl-L-prolyl-glycine L-arginine salt]", "values": [{"measurement": "Systolic Blood Pressure, Pretreatment", "result": 212, "unit": "mm Hg"}, {"measurement": "Systolic Blood Pressure, 4 hrs after administration", "result": 190, "unit": "mm Hg"}, {"measurement": "Δ Blood Pressure", "result": -22, "unit": "mm Hg"}]}
{"smiles": "C[C@H](NP(=O)(OCc1ccccc1)OCc1ccccc1)C(=O)N1CCC[C@H]1C(=O)N[C@@H](CCCNC(=N)N)C(=O)O", "note": "[Example 13]", "values": [{"measurement": "Systolic Blood Pressure, Pretreatment", "result": 181, "unit": "mm Hg"}, {"measurement": "Systolic Blood Pressure, 4 hrs after administration", "result": 162, "unit": "mm Hg"}, {"measurement": "Δ Blood Pressure", "result": -19, "unit": "mm Hg"}]}
{"smiles": "O=C(O)[C@@H]1CCCN1C(=O)[C@@H]1CCCN1C(=O)[C@H](Cc1ccccc1)NP(=O)(Cc1ccccc1)Cc1ccccc1", "note": "[Example 20, Dibenzylphosphoryl-L-phenylalanyl-L-Prolyl-L-proline]", "values": [{"measurement": "Systolic Blood Pressure, Pretreatment", "result": 184, "unit": "mm Hg"}, {"measurement": "Systolic Blood Pressure, 4 hrs after administration", "result": 169, "unit": "mm Hg"}, {"measurement": "Δ Blood Pressure", "result": -15, "unit": "mm Hg"}]}
{"smiles": "N=C(N)NCCC[C@H](NP(=O)(Cc1ccccc1)Cc1ccccc1)C(=O)N1CCC[C@H]1C(=O)N1CCC[C@H]1C(=O)O", "note": "[Example 21, Dibenzylphosphoryl-L-arginyl-L-prolyl-L-proline]", "values": [{"measurement": "Systolic Blood Pressure, Pretreatment", "result": 191, "unit": "mm Hg"}, {"measurement": "Systolic Blood Pressure, 4 hrs after administration", "result": 167, "unit": "mm Hg"}, {"measurement": "Δ Blood Pressure", "result": -24, "unit": "mm Hg"}]}
{"smiles": "O=C(O)CC[C@H](NP(=O)(OCc1ccccc1)OCc1ccccc1)C(=O)N1CCC[C@H]1C(=O)N1CCC[C@H]1C(=O)O", "note": "[Example 22, Dibenzylphosphoryl-L-glutamyl-L-propyl-L-proline]", "values": [{"measurement": "Systolic Blood Pressure, Pretreatment", "result": 206, "unit": "mm Hg"}, {"measurement": "Systolic Blood Pressure, 4 hrs after administration", "result": 196, "unit": "mm Hg"}, {"measurement": "Δ Blood Pressure", "result": -10, "unit": "mm Hg"}]}
{"smiles": "C[C@H](NP(=O)(CCc1ccccc1)OCc1ccccc1)C(=O)N1CCC[C@H]1C(=O)N1CCC[C@H]1C(=O)OCc1ccccc1", "note": "(stereo partly drawn) [Example 26, N-(O-benzyl-P-phenethylphosphonyl)-L-alanyl-L-prolyl-L-proline benzylester]", "values": [{"measurement": "Systolic Blood Pressure, Pretreatment", "result": 182, "unit": "mm Hg"}, {"measurement": "Systolic Blood Pressure, 4 hrs after administration", "result": 160, "unit": "mm Hg"}, {"measurement": "Δ Blood Pressure", "result": -22, "unit": "mm Hg"}]}
{"smiles": "C[C@H](NP(=O)(CCc1ccccc1)OCc1ccccc1)C(=O)N1CCC[C@H]1C(=O)N1CCC[C@H]1C(=O)O.NC(N)=NCCC[C@H](N)C(=O)O", "note": "(stereo partly drawn) [Example 27, N-(O-benzyl-P-phenethylphosphonyl)-L-alanyl-L-prolyl-L-proline L-arginine salt]", "values": [{"measurement": "Systolic Blood Pressure, Pretreatment", "result": 180, "unit": "mm Hg"}, {"measurement": "Systolic Blood Pressure, 4 hrs after administration", "result": 152, "unit": "mm Hg"}, {"measurement": "Δ Blood Pressure", "result": -28, "unit": "mm Hg"}]}
{"smiles": "C[C@H](NP(=O)([O-])CCc1ccccc1)C(=O)N1CCC[C@H]1C(=O)N1CCC[C@H]1C(=O)[O-].[Na+].[Na+]", "note": "[Example 28, N-phenethylphosphonyl-L-alanyl-L-prolyl-L-proline 2 sodium salt]", "values": [{"measurement": "Systolic Blood Pressure, Pretreatment", "result": 183, "unit": "mm Hg"}, {"measurement": "Systolic Blood Pressure, 4 hrs after administration", "result": 151, "unit": "mm Hg"}, {"measurement": "Δ Blood Pressure", "result": -32, "unit": "mm Hg"}]}
{"smiles": "C[C@H](NP(=O)(O)CCc1ccccc1)C(=O)N(CC(=O)N1CCC[C@H]1C(=O)[O-])C1Cc2ccccc2C1.C[C@H](NP(=O)(O)CCc1ccccc1)C(=O)N(CC(=O)N1CCC[C@H]1C(=O)[O-])C1Cc2ccccc2C1.[Na+].[Na+]", "note": "[Example 29, N-Phenethylphosphonyl-L-alanyl-N-(2-indanyl)glycyl-L-proline 2 sodium salt]", "values": [{"measurement": "Systolic Blood Pressure, Pretreatment", "result": 203, "unit": "mm Hg"}, {"measurement": "Systolic Blood Pressure, 4 hrs after administration", "result": 172, "unit": "mm Hg"}, {"measurement": "Δ Blood Pressure", "result": -31, "unit": "mm Hg"}]}
{"smiles": "C[C@H](NP(=O)(CCc1ccccc1)OCc1ccccc1)C(=O)N(CC(=O)N1CCC[C@H]1C(=O)O)C1Cc2ccccc2C1.NC(N)=NCCC[C@H](N)C(=O)O", "note": "(stereo partly drawn) [Example 30, N-(O-Benzyl-P-phenethylphosphonyl)-L-alanyl-N-(2-indanyl)glycyl-L-proline L-arginine salt]", "values": [{"measurement": "Systolic Blood Pressure, Pretreatment", "result": 184, "unit": "mm Hg"}, {"measurement": "Systolic Blood Pressure, 4 hrs after administration", "result": 154, "unit": "mm Hg"}, {"measurement": "Δ Blood Pressure", "result": -30, "unit": "mm Hg"}]}
{"smiles": "C[C@H](NP(=O)(OCc1ccccc1)OCc1ccccc1)C(=O)N1CCC[C@H]1C(=O)N1CCC[C@H]1C(=O)[O-].[K+]", "note": "[Example 32, Dibenzylphosporyl-L-alanyl-L-propyl-L-Proline potassium salt]", "values": [{"measurement": "Systolic Blood Pressure, Pretreatment", "result": 185, "unit": "mm Hg"}, {"measurement": "Systolic Blood Pressure, 4 hrs after administration", "result": 160, "unit": "mm Hg"}, {"measurement": "Δ Blood Pressure", "result": -25, "unit": "mm Hg"}]}
{"smiles": "CSCC[C@H](NP(=O)(OCc1ccccc1)OCc1ccccc1)C(=O)N1CCC[C@H]1C(=O)N1CCC[C@H]1C(=O)O.N=C(N)NCCC[C@H](N)C(=O)O", "note": "[Example 33, Dibenzylphosphoryl-L-methionyl-L-propyl-L-proline L-arginine salt]", "values": [{"measurement": "Systolic Blood Pressure, Pretreatment", "result": 186, "unit": "mm Hg"}, {"measurement": "Systolic Blood Pressure, 4 hrs after administration", "result": 168, "unit": "mm Hg"}, {"measurement": "Δ Blood Pressure", "result": -18, "unit": "mm Hg"}]}
{"smiles": "CSCC[C@H](NP(=O)(CCc1ccccc1)OCc1ccccc1)C(=O)N1CCC[C@H]1C(=O)N1CCC[C@H]1C(=O)O.NC(N)=NCCC[C@H](N)C(=O)O", "note": "(stereo partly drawn) [Example 35, N-(O-Benzyl-P-phenethylphosphonyl)-L-methionyl-L-prolyl-L-proline L-arginine salt]", "values": [{"measurement": "Systolic Blood Pressure, Pretreatment", "result": 191, "unit": "mm Hg"}, {"measurement": "Systolic Blood Pressure, 4 hrs after administration", "result": 158, "unit": "mm Hg"}, {"measurement": "Δ Blood Pressure", "result": -33, "unit": "mm Hg"}]}
{"smiles": "NCCCC[C@H](NP(=O)(O)CCc1ccccc1)C(=O)N1CCC[C@H]1C(=O)N1CCC[C@H]1C(=O)[O-].NCCCC[C@H](NP(=O)(O)CCc1ccccc1)C(=O)N1CCC[C@H]1C(=O)N1CCC[C@H]1C(=O)[O-].[Na+].[Na+]", "note": "[Example 36, N^α -Phenethylphosphonyl-L-lysyl-L-prolyl-L-proline 2 sodium salt]", "values": [{"measurement": "Systolic Blood Pressure, Pretreatment", "result": 200, "unit": "mm Hg"}, {"measurement": "Systolic Blood Pressure, 4 hrs after administration", "result": 177, "unit": "mm Hg"}, {"measurement": "Δ Blood Pressure", "result": -23, "unit": "mm Hg"}]}
{"smiles": "CCOP(=O)(CCc1ccccc1)N[C@@H](CCCCN)C(=O)N1CCC[C@H]1C(=O)N1CCC[C@H]1C(=O)O.NC(N)=NCCC[C@H](N)C(=O)O", "note": "(stereo partly drawn) [Example 37, N^α -(O-Ethyl-P-phenethylphosphonyl)-L-lysyl-L-prolyl-L-proline L-arginine salt]", "values": [{"measurement": "Systolic Blood Pressure, Pretreatment", "result": 201, "unit": "mm Hg"}, {"measurement": "Systolic Blood Pressure, 4 hrs after administration", "result": 172, "unit": "mm Hg"}, {"measurement": "Δ Blood Pressure", "result": -29, "unit": "mm Hg"}]}
{"smiles": "CCCCCP(=O)(O)N[C@@H](C)C(=O)N1CCC[C@H]1C(=O)N1CCC[C@H]1C(=O)[O-].CCCCCP(=O)(O)N[C@@H](C)C(=O)N1CCC[C@H]1C(=O)N1CCC[C@H]1C(=O)[O-].[Na+].[Na+]", "note": "[Example 38, N-n-Amylphosphonyl-L-alanyl-L-prolyl-L-proline 2 sodium salt]", "values": [{"measurement": "Systolic Blood Pressure, Pretreatment", "result": 187, "unit": "mm Hg"}, {"measurement": "Systolic Blood Pressure, 4 hrs after administration", "result": 167, "unit": "mm Hg"}, {"measurement": "Δ Blood Pressure", "result": -20, "unit": "mm Hg"}]}
{"smiles": "CCOP(=O)(CCc1ccccc1)N[C@@H](CCSC)C(=O)N1CCC[C@H]1C(=O)N1CCC[C@H]1C(=O)O.NC(N)=NCCC[C@H](N)C(=O)O", "note": "(stereo partly drawn) [Example 40, N--(O--ethyl-P--phenethylphosphonyl)-L-methionyl-L-prolyl-L-proline L-arginine salt]", "values": [{"measurement": "Systolic Blood Pressure, Pretreatment", "result": 196, "unit": "mm Hg"}, {"measurement": "Systolic Blood Pressure, 4 hrs after administration", "result": 166, "unit": "mm Hg"}, {"measurement": "Δ Blood Pressure", "result": -30, "unit": "mm Hg"}]}
